Experimental data as given in PubChem BioAssay AID493130 (Broad Institute, 2011).
Inconclusive results are not listed. Calls of active or inactive are those of the source.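 Rule for the calls: active = signal-lowering compounds whose fitted half-maximal concentration is at most ten times their highest tested dose; inconclusive = flat fit between -30 and -70%, or poor fit; inactive = flat within 30%, signal rising, or potency beyond limit.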

molecular target: POS-1 (Caenorhabditis elegans) binding to mex-3 RNA; experiment: inhibitors of POS-1/mex-3 RNA binding, dose response, counter-screen for MEX-5 RNA-binding inhibitor project, biochemical, fluorescence polarization, cherry-picked samples, set 2 (AID 493130); conditions: POS-1/mex-3 RNA fluorescence polarization, 1 h;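 note: POS-1 as maltose binding protein fusion made in E. coli with FITC RNA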

SMILES | AC50
CCN(CC)c1ccc(/C=C(/C#N)c2nc3ccc(C)cc3[nH]2)c(OC(C)C)c1 | 1.61 µM
O=C1N=c2ccccc2=C1c1sc(=S)n(NC(=O)c2ccccc2)c1O | 8.56 µM
O=c1[nH]c(-[n+]2ccccc2)c(/C=N/NC([S-])=Nc2ccccc2)s1 | 5.9 µM
CC(=O)Nc1ccc(S(=O)(=O)NNC(=O)C(=O)NNc2ccccn2)cc1 | > 10 µM (inactive)
Oc1ccc(/C=N/NC(=S)Nc2cccnc2)cc1O | 9.5 µM
COC(=O)C1=COC(C)C2CN3CCc4c([nH]c5ccccc45)C3CC12 (stereo unspecified) | 7.17 µM
Cc1cc(-c2csc(N)n2)c(C)n1C | 8.77 µM
O=C(O)c1ccc(Cl)c2c1C1C=CCC1C(c1ccccn1)N2 (stereo unspecified) | 8.69 µM
CN(C)c1ccc2nc3c(=O)[nH]c(=O)nc-3n(CC(O)C(O)C(O)CO)c2c1 (stereo unspecified) | 9.63 µM

same assay, conditions: POS-1/mex-3 RNA fluorescence polarization, 1 h; at 10 µM (top of the series)

SMILES | activity change, negative = inhibition
O=C1S/C(=C\c2cccs2)C(=O)N1c1ccc(O)cc1 | inactive
Cc1cc(C)c[n+](-c2nc([O-])sc2C=O)c1 | inactive
CSc1nsc2nc(=O)c(/C=C3\C(C)=Nc4ccc(C)cc43)c(N)n12 | inactive
COc1cc2c(cc1OC)[C@@H](Cc1ccc(OCCC#N)cc1)N(C)CC2 | inactive
COCCNC(=S)NNC(=O)c1cccs1 | inactive
CSc1nc(N)c(N=Nc2ccc([As](=O)(O)O)cc2)c(=O)[nH]1 | inactive
Cn1ncc2c(NNC(=O)c3ccc(Cl)cc3Cl)ncnc21 | inactive
Nc1ccc2oc(-c3ccccc3Cl)cc(=O)c2c1O | inactive
Cc1cccc(/C=N/NC(=O)Cn2nnnc2N)n1 | inactive
O=C(NNS(=O)(=O)c1ccc(F)cc1)c1cnccn1 | inactive
Cc1ccc(S(=O)(=O)c2cc3c(=O)n4ccccc4nc3n(C)c2=N)cc1 | inactive
CC(C)N1CCc2c(sc(NC(=O)c3ccc(S(=O)(=O)N4CCCCC4C)cc3)c2C(N)=O)C1 (stereo unspecified) | inactive
COC(=O)c1ccc(-c2ccc(C(c3c(C)[nH][nH]c3=O)c3c(C)[nH][nH]c3=O)o2)cc1 | inactive
CC(C#N)(Nc1ccc(Cl)cc1)c1cccnc1 (stereo unspecified) | inactive
CC(=Nc1ccc(C)cc1)c1sc2ccccc2c1O | inactive
O=C(CCN1C(=O)/C(=C/c2ccccc2Cl)SC1=S)NNC(=O)c1ccccc1O | inactive
Cc1cccc(C(=O)NNC(=O)c2csc(N3CCOCC3)n2)c1C | inactive
CC(C)(C)N(CC#CCC(O)(c1ccccc1)c1ccccc1)CCO | inactive
O=C(O)c1ccc(/C=C2\SC(=S)N(Nc3ccccc3)C2=O)cc1 | inactive
O=C(NNC(=O)c1ccccc1[N+](=O)[O-])c1ccco1 | inactive
CCOc1ccccc1C1NC(=O)NC(C)=C1C(=O)OCc1ccccc1 (stereo unspecified) | inactive
Cc1c(N=NC2=C(O)CCCC2=O)c(=O)n(-c2ccccc2)n1C | inactive
CC(C)(C)CC(C)(C)NCC(O)COc1ccc2c(c1)CCC2 (stereo unspecified) | inactive
Fc1ccc(N=c2ssnc2Cl)c(F)c1 | inactive
Cc1ccc(S(=O)(=O)N/N=C/c2ccc(O)c(O)c2)cc1[N+](=O)[O-] | inactive
Cc1ccc(C(=O)N/N=C/c2ccc(-c3ccc(Br)cc3[N+](=O)[O-])o2)o1 | inactive

SMILES | activity change, negative = inhibition
COc1ccc(C[C@@H]2c3cc(O)c(OC)cc3CCN2C)cc1O | inactive
CCOC(=O)C1CCN(c2nc(N)c3c(N)nc(SCC(=O)O)cc3c2C#N)CC1 | inactive
O=C(Nc1nccs1)c1ccc(-c2ccc(Cl)cc2)o1 | inactive
CCN1CCN(Cc2c(C(=O)N/N=C(\C)c3ccc(Cl)c(Cl)c3)nnn2-c2nonc2N)CC1 | inactive
Cc1cc(/C=C2\SC(=S)N(Cc3ccco3)C2=O)c(C)n1-c1ccccc1 | inactive
Cc1ccc2c(c1Cl)NC(C(=O)O)C1CC(Sc3ccccc3[N+](=O)[O-])C(Cl)C21 (stereo unspecified) | inactive
Oc1sc(C=Nc2ccc(F)cc2)c2ccccc12 | inactive
CCOC(=O)C1Cc2ccccc2C(=O)O1 (stereo unspecified) | inactive
O=C(N/N=C/c1ccncc1)c1cc([N+](=O)[O-])cc([N+](=O)[O-])c1O | inactive
CCOC(=O)c1cnc2c(N=Nc3ccccc3)c(N)nn2c1N | inactive
COc1ccccc1CN1CC(C(=O)NCCN(C)CCc2ccccc2)CCC1=O (stereo unspecified) | inactive
COc1ccc(NC(=O)c2coc(C)c2)cc1 | inactive
COc1cccc2cc(-c3nc(-c4cccs4)cs3)c(=O)oc12 | inactive
CCOc1ccc(/C=N/n2c(C)nc3ccccc3c2=O)cc1 | inactive
O=C(CCCN1C(=O)/C(=C/c2ccccc2Cl)SC1=S)NNC(=O)c1ccc(Cl)cc1 | inactive
CC(=O)N1CCc2c(sc(NC(=O)C3CCCN3S(=O)(=O)c3cccs3)c2C#N)C1 (stereo unspecified) | inactive
COc1ccc(C(=O)C/C(=C\C(=O)c2ccc(C)cc2)c2ccccc2)cc1 | inactive
CC1=C/C(=C(/c2cc(C)c(O)c(Br)c2)c2ccccc2S(=O)(=O)O)C=C(Br)C1=O | inactive
O=C(NNC(=O)c1ccc(O)c(Cl)c1)c1cccc(S(=O)(=O)N2CCOCC2)c1 | inactive
Cc1cccc(C(=O)NNC(=O)c2ccco2)c1O | inactive
Cc1ccccc1C(=O)N=c1ccn(-c2nc3ccccc3nc2NS(=O)(=O)c2ccccc2)cc1 | inactive
O=C1NC(=O)N(Cc2ccccc2)C(=O)/C1=C\c1ccco1 | inactive
COC(=O)c1cc(NC(=O)c2ccccc2)c(=O)oc1C | inactive
CCc1ccc(N2C(=O)NC(=O)/C(=C/c3cccn3CCOc3ccc(C(C)CC)cc3)C2=O)cc1 (stereo unspecified) | inactive
Nc1c(NCc2ccccc2)c(=O)[nH]c(=O)n1Cc1ccccc1 | inactive
CCOC(=O)Cc1csc(NC(=O)c2sc3nc4ccc(CC)cc4cc3c2N)n1 | inactive
